What all share (format): physicochemical
A short description of data set [1]: Wear life (T 1/2) of polymer plate in xenon fade meter, JIS L0843 and JIS B7754. As to conditions: time until color density decreases to one-half the initial value. An excerpt: (§1) 0.04 Parts of fulgimide compounds shown in Table 3, 70 parts of tetraethyleneglycol dimethacrylate, 15 parts of triethyleneglycol dimethacrylate, 10 parts of glycidyl methacrylate, 5 parts of 2-hydroethylmethacrylate and 1 part of perbutyl ND as a polymerization catalyst, were sufficiently mixed together until they were completely dissolved. The mixture solution was poured into a mold constituted by a glass plate and a gasket of an ethylene/vinyl acetate copolymer, and its temperature was elevated in an air oven from 35° C. to 90° C. over a period of 20 hours to effect the polymerization. After the polymerization, the polymer was taken out from the glass mold.
(§2) The obtained polymer plate was irradiated with xenon light by using a Xenon Long-Life Fade Meter FAL-25AX-HC (output: 2.5 KW, source of light: xenon long-life arc lamp) manufactured by Suga Shikenki Co., in order to measure a maximum absorption wavelength in a state of developing color. The initial color tone was observed by eyes, and YI of the samples was measured by using a color-difference meter (Model SM-4) manufactured by Suga Shikenki Co. The wear life (T 1/2) was also measured in compliance with JIS L0843 and JIS B7754. T 1/2 is defined to be the time until the color density decreases down to one-half the initial value when the polymer plate is irradiated with light by using the fade meter.
(§3) For the purpose of comparison, the fulgimide compounds represented by the following formulas (A) to (I) were also used to prepare polymer plates to measure their properties in the same procedure as described above. [drawing 113]

Data set [2] is described as follows: Developed color of polymer plate under xenon light (color density, maximum absorption wavelength). As to conditions: for Color density: 0.04 parts in polymer plate; for λ max: state of developing color, polymer plate.
Excerpt: as §1, §2, §3

Data set [3] is described as follows: Initial color of polymer plate (visual observation, YI by color-difference meter). The following applies: for Initial color, visually observed: before irradiation; for Initial color, YI: color-difference meter SM-4.
Excerpt: as §1, §2, §3

`CC(=O)N1C(=O)C2=C(C3CC3)c3cc(C)sc3C3(C4CC5CC(C4)CC3C5)C2C1=O` (stereo not shown) [Compound 4, N-Acetyl-4-cyclopropyl-6,7-dihydro-2-methylspirobenzothiophenedicarboxyimide-7,2'-tricyclo[3.3.1.1^3,7]decane]: the T1/2 in data set [1] is 140 h. In data set [2], the Color density came out at 1.43 and the λ max is listed as 562 nm. For the same compound, in data set [3], the “Initial color, visually observed” value is listed as “colorless” and the “Initial color, YI” value was found to be 2.15.
In data set [1], `N#CN1C(=O)C2=C(C3CC3)c3ccsc3C3(C4CC5CC(C4)CC3C5)C2C1=O` (stereo not shown) [Compound 1, N-Cyano-4-cyclopropyl-6,7-dihydrospirobenzothiophenedicarboxyimide-7,2'-tricyclo[3.3.1.1^3,7]decane] gave a T1/2 of 400 h. In addition, in data set [2], the Color density amounted to 0.65 and the λ max worked out at 615 nm. Also, in data set [3], the “Initial color, visually observed” value is on record as “colorless” and the “Initial color, YI” value is given as 1.85.
The compound `CCCCC12CCC(CC1)C21c2sc(C)c(CC)c2C(C2CC2)=C2C(=O)N(C(=O)c3cccc(C(F)(F)F)c3)C(=O)C21` (stereo not shown) [Compound 17] returned a T1/2 in data set [1] of 140 h. Further, in data set [2], the Color density came to 1.10 and the λ max is 610 nm. Moreover, in data set [3], the “Initial color, visually observed” value is reported as “colorless” and the “Initial color, YI” value was found to be 3.10.
Consider `CC(=O)N1C(=O)C2=C(C)c3ccsc3C3(C4CC5CC(C4)CC3C5)C2C1=O` (stereo not shown) [Compound 32], for which the T1/2 in data set [1] turned out to be 105 h. In data set [2], this compound showed a Color density of 0.70 and a λ max of 550 nm. Moreover, in data set [3], the “Initial color, visually observed” value is reported as “colorless” and the “Initial color, YI” value was determined as 2.11.
The compound `CC1=C2C(=O)N(CC#N)C(=O)C2C2(c3oc(-c4ccccc4)cc31)C1CC3CC(C1)CC2C3` (stereo not shown) [B, reference compound] displayed a T1/2 in data set [1] of 95 h. Moreover, in data set [2], the Color density is on record as 0.75 and the λ max came out at 550 nm. In data set [3], the “Initial color, visually observed” value is on record as “yellow” and the “Initial color, YI” value was found to be 10.65.
Consider `CC1=C2C(=O)N(S(=O)(=O)c3cc(Cl)cc(Cl)c3)C(=O)C2C2(c3c1c1c(n3-c3ccccc3)CCCC1)C1CCC2CC1` (stereo not shown) [Compound 25], for which, in data set [1], the T1/2 turned out to be 100 h. Besides, in data set [2], the Color density is on record as 0.71 and the λ max was 619 nm. Further, in data set [3], the “Initial color, visually observed” value was “colorless” and the “Initial color, YI” value turned out to be 3.26.
Take `CCC1=C2C(=O)N(C(=O)C(Cl)(Cl)Cl)C(=O)C2C2(c3sc4cc(OC)ccc4c31)C1CC3CC(Cl)(C1)CC2(Cl)C3` (stereo not shown) [Compound 7, 3',5'-Dichloro-3,4-dihydro-1-ethyl-7-methoxy-N-trichloromethylcarbonylspirodibenzo[5,6-b:d]thiophenedicarboxyimide-4,2'-tricyclo[3.3.1.1^3,7]decane]: the T1/2 in data set [1] was determined as 100 h. In addition, in data set [2], the Color density stood at 0.85 and the λ max is on record as 550 nm. In addition, in data set [3], the “Initial color, visually observed” value is reported as “colorless” and the “Initial color, YI” value turned out to be 2.15.
In data set [1], `CC(=O)N1C(=O)C2=C(C)c3c4c(n(-c5ccccc5)c3C3(C5CCCC3CCC5)C2C1=O)CCCC4` (stereo not shown) [Compound 16] gave a T1/2 of 100 h. In data set [2], this compound came in with a Color density of 1.05 and a λ max of 625 nm. In data set [3], the “Initial color, visually observed” value is on record as “colorless” and the “Initial color, YI” value is 3.56.
In turn, `CC(C)C1=C2C(=O)N(S(C)(=O)=O)C(=O)C2C2(c3c1ccn3C)C1CC3CC2CC(Cl)(C3)C1` (stereo not shown) [Compound 6, 5'-Chloro-6,7-dihydro-N-methyl-N'-methylsulfonyl-4-isopropylspiroindoledicarboxyimide-7,2'-tricyclo[3.3.1.1^3,7]decane] yielded a T1/2 in data set [1] of 110 h. In addition, in data set [2], the Color density is reported as 0.95 and the λ max came to 601 nm. Besides, in data set [3], the “Initial color, visually observed” value was “pale yellow” and the “Initial color, YI” value is 4.85.
In data set [1], `COc1cc(OC)c2c(c1)C(C)=C1C(=O)N(C#N)C(=O)C1C21C2CC3CC(C2)CC1C3` (stereo not shown) [Compound 30] gave a T1/2 of 210 h. In data set [2], the Color density worked out at 0.73 and the λ max came to 590 nm. Moreover, in data set [3], the “Initial color, visually observed” value is given as “colorless” and the “Initial color, YI” value came out at 2.21.
For the compound `COC12CC3CC(C1)C1(c4c(c5ccccc5n4-c4ccccc4)C(C4CC4)=C4C(=O)N(C(Cl)(Cl)Cl)C(=O)C41)C(C3)C2` (stereo not shown) [Compound 9], in data set [1], the T1/2 was determined as 145 h. Also, in data set [2], the Color density was 1.02 and the λ max was 610 nm. In data set [3], the “Initial color, visually observed” value was “colorless” and the “Initial color, YI” value was determined as 3.85.
On to `CC(=O)N1C(=O)C2=C(C3CC3)c3ccsc3C3(C4CC5CC(C4)CC3C5)C2C1=O` (stereo not shown) [Compound 2, N-Acetyl-4-cyclopropyl-6,7-dihydrospirobenzothiophenedicarboxyimide-7,2'-tricyclo[3.3.1.1^3,7]decane], for which the T1/2 in data set [1] was determined as 140 h. Also, in data set [2], the Color density was 1.20 and the λ max amounted to 560 nm. Moreover, in data set [3], the “Initial color, visually observed” value is given as “colorless” and the “Initial color, YI” value came to 2.01.
`CC(=O)N1C(=O)C2=C(C3CC3)c3c(sc4c3CCCC4)C3(C4CCC3CC4)C2C1=O` (stereo not shown) [Compound 23]: in data set [1], the T1/2 amounted to 140 h. In data set [2], this compound yielded a Color density of 0.87 and a λ max of 600 nm. In data set [3], the “Initial color, visually observed” value is “colorless” and the “Initial color, YI” value is on record as 2.36.
Compound `COc1ccc(C2=C3C(=O)N(C(=O)c4ccccc4)C(=O)C3C3(c4oc5ccccc5c42)C2CC4CC3CC(C)(C4)C2)cc1` (stereo not shown) [Compound 8, N-Benzoyl-3,4-dihydro-5'-methyl-1-(p-methoxyphenyl)spirobenzo[5,6-b:d]furandicarboxyimide-4,2-tricyclo[3.3.1.1^3,7]decane] returned a T1/2 in data set [1] of 110 h. Further, in data set [2], the Color density came out at 0.98 and the λ max was determined as 541 nm. In data set [3], the “Initial color, visually observed” value is recorded as “colorless” and the “Initial color, YI” value is reported as 3.94.
The compound `CC1=C2C(=O)N(C(=O)c3cccc(C#N)c3)C(=O)C2C2(c3c1c1c(n3C)CCCC1)C1CC3CC(F)(C1)CC2(F)C3` (stereo not shown) [Compound 11] came in with a T1/2 in data set [1] of 100 h. In addition, in data set [2], the Color density came to 0.88 and the λ max was found to be 630 nm. Also, in data set [3], the “Initial color, visually observed” value is “colorless” and the “Initial color, YI” value is listed as 2.35.
`COc1ccc(-c2cc3c(o2)C2(C4CC5CC(C4)CC2C5)C2C(=O)N(CC#N)C(=O)C2=C3C)cc1` (stereo not shown) [C, reference compound] returned a T1/2 in data set [1] of 95 h. For the same compound, in data set [2], the Color density is recorded as 0.77 and the λ max is recorded as 560 nm. In addition, in data set [3], the “Initial color, visually observed” value is recorded as “yellow” and the “Initial color, YI” value is 17.56.
In data set [1], `Cn1c(Cl)cc2c1C1(C3CCCC1(Cl)CCC3)C1C(=O)N(C(F)(F)F)C(=O)C1=C2c1ccccc1` (stereo not shown) [Compound 14] had a T1/2 of 100 h. In data set [2], this compound displayed a Color density of 0.75 and a λ max of 603 nm. Also, in data set [3], the “Initial color, visually observed” value is “pale yellow” and the “Initial color, YI” value is 4.89.

Values taken from patent US5631382A, “Fulgimide compound” (Tokuyama Corporation, priority 1994, dated 1997).
